In ChEMBL document CHEMBL3217614, “HIV-1 protease inhibitors with a tertiary alcohol containing transition-state mimic and various P2 and P1 substituents” (Medchemcomm, 2011):

Legend:
[1] = system: Human immunodeficiency virus; assay: Antiviral activity against HIV infected in human MT4 cells by XTT assay; assay type: functional, organism-based; settings: Human immunodeficiency virus 1, MT4
[2] = Cytotoxicity against human MT4 cells after 5 days by XTT assay; assay type: cell-based
[3] = biological target: Protease (Human immunodeficiency virus 1, UniProt Q9YQ12); assay: Inhibition of HIV1 protease expressed in Escherichia coli using DABCYL-gamma-Abu-Ser-Gln-ASN-Tyr-Pro-Ile-Val-Gln-EDANS as substrate after 20 mins by fluorescence assay
[4] = Intrinsic clearance in human liver microsomes after 30 mins by LC-MS/MS analysis; assay type: ADME; settings: read-out: CLH
[5] = Apparent permeability from apical to basolateral side in human Caco2 cells at 10 uM after 60 mins; assay type: ADME, cell-based; settings: Caco-2
[6] = Intrinsic clearance in human liver microsomes at 2 uM after 10 to 30 mins by LC-MS/MS analysis; assay type: ADME; settings: read-out: CLH
[7] = system: Human immunodeficiency virus 1; assay: Antiviral activity against HIV1 RF infected in human MT2 cells after 4 to 7 days by ELISA; assay type: functional, organism-based; settings: Human immunodeficiency virus 1, RF
[8] = Intrinsic clearance in human liver microsomes after 0.5 to 30 mins by LC-MS/MS analysis; assay type: ADME; settings: read-out: CLH
[9] = Apparent permeability from apical to basolateral side in human Caco2 cells at 10 uM after 30 to 120 mins; assay type: ADME, cell-based; settings: Caco-2

Protease, sequence (Q9YQ12 whole entry): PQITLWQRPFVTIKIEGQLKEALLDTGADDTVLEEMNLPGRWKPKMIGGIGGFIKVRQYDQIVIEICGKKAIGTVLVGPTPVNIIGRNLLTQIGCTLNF

| SMILES | Ki [3] [nM] | microsomal CLint [4] [µL/min/mg] | Papp A→B at 1 h, 10 µM [5] [×10⁻⁶ cm/s] | EC50 [1] [nM] | CC50 at 120 h [2] [nM] | microsomal CLint at 2 µM [6] [µL/min/mg] | EC50 [7] [nM] | microsomal CLint [8] [µL/min/mg] | Papp A→B at 10 µM [9] [×10⁻⁶ cm/s] |
| --- | --- | --- | --- | --- | --- | --- | --- | --- | --- |
| COC(=O)N[C@H](C(=O)NN(CCC[C@@](O)(Cc1ccccc1)C(=O)N[C@H]1c2ccccc2C[C@H]1O)Cc1ccc(-c2ccncc2)cc1)C(C)(C)C |  |  |  | 170 |  |  |  |  |  |
| CNC(=O)[C@@H](NC(=O)[C@@](O)(CCCN(Cc1ccc(Br)cc1)NC(=O)[C@@H](NC(=O)OC)C(C)(C)C)Cc1ccccc1)C(C)C | 2.7 |  |  |  | > 10000 |  |  |  |  |
| CNC(=O)[C@@H](NC(=O)[C@](O)(CCCN(Cc1ccc(Br)cc1)NC(=O)[C@@H](NC(=O)OC)C(C)(C)C)Cc1ccccc1)C(C)(C)C | > 5000 |  |  | > 10000 | > 10000 |  |  |  |  |
| CNC(=O)[C@H](CC(C)C)NC(=O)[C@@](O)(CCCN(Cc1ccc(Br)cc1)NC(=O)[C@@H](NC(=O)OC)C(C)(C)C)Cc1ccccc1 | 65 |  |  | > 10000 | > 10000 |  |  |  |  |
| CNC(=O)[C@H](C)NC(=O)[C@@](O)(CCCN(Cc1ccc(Br)cc1)NC(=O)[C@@H](NC(=O)OC)C(C)(C)C)Cc1ccccc1 | 18 |  |  | 2600 | > 10000 |  |  |  |  |
| COC(=O)N[C@H](C(=O)NN(CCC[C@@](O)(Cc1ccccc1)C(=O)N[C@H](CO)C(C)(C)C)Cc1ccc(Br)cc1)C(C)(C)C | 130 |  |  | > 10000 | > 10000 |  |  |  |  |
| CNC(=O)[C@@H](NC(=O)[C@@](CCCN(Cc1ccc(Br)cc1)NC(=O)[C@@H](NC(=O)OC)C(C)(C)C)(Cc1ccccc1)O[Si](C)(C)C(C)(C)C)C(C)(C)C | 2700 |  |  | > 10000 | > 10000 |  |  |  |  |
| CNC(=O)[C@@H](NC(=O)[C@@](O)(CCCN(Cc1ccc(-c2ccccc2)cc1)NC(=O)[C@@H](NC(=O)OC)C(C)(C)C)Cc1ccccc1)C(C)(C)C | 4.6 | > 300 | 21 | 1000 | > 50000 |  |  |  |  |
| CNC(=O)[C@@H](NC(=O)[C@@](O)(CCCN(Cc1ccc(-c2cccnc2)cc1)NC(=O)[C@@H](NC(=O)OC)C(C)(C)C)Cc1ccccc1)C(C)(C)C | 3.1 | 63 | < 1 | 1000 | > 50000 |  |  |  |  |
| CNC(=O)[C@@H](NC(=O)[C@@](O)(CCCN(Cc1ccc(-c2ccncc2)cc1)NC(=O)[C@@H](NC(=O)OC)C(C)(C)C)Cc1ccccc1)C(C)(C)C | 3.5 | 20 | 1.9 | 1100 | > 50000 |  |  |  |  |
| CNC(=O)[C@@H](NC(=O)[C@@](O)(CCCN(Cc1ccc(C#Cc2ccccn2)cc1)NC(=O)[C@@H](NC(=O)OC)C(C)(C)C)Cc1ccccc1)C(C)(C)C | 7 |  |  | 1200 | > 50000 |  |  |  |  |
| COC(=O)N[C@H](C(=O)N[C@@H](Cc1ccccc1)[C@@H](O)CN(Cc1ccc(-c2ccccn2)cc1)NC(=O)[C@@H](NC(=O)OC)C(C)(C)C)C(C)(C)C [ATAZANAVIR] |  |  |  |  |  | 90 | 3.9 | 140 | 5.3 |

More lines, main results first:

| Ki [3] [nM] | microsomal CLint [4] [µL/min/mg] | Papp A→B at 1 h, 10 µM [5] [×10⁻⁶ cm/s] | SMILES | EC50 [1] [nM] | CC50 at 120 h [2] [nM] | microsomal CLint at 2 µM [6] [µL/min/mg] | EC50 [7] [nM] | microsomal CLint [8] [µL/min/mg] | Papp A→B at 10 µM [9] [×10⁻⁶ cm/s] |
| --- | --- | --- | --- | --- | --- | --- | --- | --- | --- |
| 6.2 | 180 | 4.6 | CNC(=O)[C@@H](NC(=O)[C@@](O)(CCCN(Cc1ccc(Br)cc1)NC(=O)[C@@H](NC(=O)OC)C(C)(C)C)Cc1ccccc1)C(C)(C)C | 2000 | > 10000 |  |  |  |  |
| 170 |  |  | CNC(=O)[C@H](Cc1ccccc1)NC(=O)[C@@](O)(CCCN(Cc1ccc(Br)cc1)NC(=O)[C@@H](NC(=O)OC)C(C)(C)C)Cc1ccccc1 | 8200 | > 10000 |  |  |  |  |
| 3.6 |  |  | CNC(=O)[C@@H](NC(=O)[C@@](O)(CCCN(Cc1ccc(-c2ccsc2)cc1)NC(=O)[C@@H](NC(=O)OC)C(C)(C)C)Cc1ccccc1)C(C)(C)C | 1000 | > 50000 |  |  |  |  |
| 4.8 |  |  | CNC(=O)[C@@H](NC(=O)[C@@](O)(CCCN(Cc1ccc(-c2ccc3c(c2)OCO3)cc1)NC(=O)[C@@H](NC(=O)OC)C(C)(C)C)Cc1ccccc1)C(C)(C)C | 1200 | > 50000 |  |  |  |  |
| 3.4 | > 300 | 6.1 | CNC(=O)[C@@H](NC(=O)[C@@](O)(CCCN(Cc1ccc(C#Cc2cccnc2)cc1)NC(=O)[C@@H](NC(=O)OC)C(C)(C)C)Cc1ccccc1)C(C)(C)C | 2100 | > 50000 |  |  |  |  |
| 6.6 |  |  | CNC(=O)[C@@H](NC(=O)[C@@](O)(CCCN(Cc1ccc(C#Cc2ccncc2)cc1)NC(=O)[C@@H](NC(=O)OC)C(C)(C)C)Cc1ccccc1)C(C)(C)C | 8900 | > 50000 |  |  |  |  |
| 6.3 |  |  | CNC(=O)[C@@H](NC(=O)[C@@](O)(CCCN(Cc1ccc(-c2ccccn2)cc1)NC(=O)[C@@H](NC(=O)OC)C(C)(C)C)Cc1ccccc1)C(C)(C)C | 4900 | > 50000 |  |  |  |  |
| 3.5 |  |  | CNC(=O)[C@@H](NC(=O)[C@@](O)(CCCN(Cc1ccc(-c2nccs2)cc1)NC(=O)[C@@H](NC(=O)OC)C(C)(C)C)Cc1ccccc1)C(C)(C)C | 3700 | > 50000 |  |  |  |  |
